These are literature values, as cited in US9272137B2, “Transdermal methods and systems for the delivery of anti-migraine compounds” (Teva Pharmaceuticals International GmbH, priority 2006, dated 2016).

Take `CNS(=O)(=O)Cc1ccc2[nH]cc(CCN(C)C)c2c1` [Sumatriptan]: the serum elimination half-life (in vivo) is 2 h. Besides, the “time within which most of the active drug is eliminated” value (majority of patients) was 4 to 6 h.
